Experimental data as given in doi:10.1101/2025.04.13.648610v1, “Catalytic Mechanism and Differential Alarmone Regulation of a Conserved Stringent Nucleosidase” (biorxiv, 2025).
Numbering of substitutions follows the chain as printed.

Assays:
Assay type in all cases: binding
[1] = molecular target: T1, PpnN (previously YgdH) (Escherichia coli, UniProt P0ADR8); assay: X-ray crystal structure […] Å
T1 construct: full length, N-terminal His6 tag, plasmid pCA24N-ppnN, expressed in E. coli BL21(DE3) ppnN::kan; homotetramer; domains PAG1 1-150, catalytic 151-329, PAG2 330-454
T1 sequence (P0ADR8 1-454): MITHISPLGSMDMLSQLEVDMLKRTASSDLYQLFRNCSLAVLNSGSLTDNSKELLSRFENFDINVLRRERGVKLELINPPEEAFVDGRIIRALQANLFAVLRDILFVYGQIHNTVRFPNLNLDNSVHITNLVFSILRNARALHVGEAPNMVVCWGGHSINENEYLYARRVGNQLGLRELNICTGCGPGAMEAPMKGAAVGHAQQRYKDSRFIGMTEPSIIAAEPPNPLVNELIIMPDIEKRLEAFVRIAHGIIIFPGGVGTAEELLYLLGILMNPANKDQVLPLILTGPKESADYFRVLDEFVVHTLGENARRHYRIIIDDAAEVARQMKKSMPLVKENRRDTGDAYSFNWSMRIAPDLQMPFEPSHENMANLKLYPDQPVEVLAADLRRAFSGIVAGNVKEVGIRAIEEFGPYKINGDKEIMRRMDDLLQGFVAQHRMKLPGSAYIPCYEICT

[2] = molecular target: T1, PpnN (previously YgdH); assay: X-ray crystal structure
[3] = molecular target: T2, PpnN (previously YgdH) (Escherichia coli, UniProt P0ADR8, E264A); assay: X-ray crystal structure […] Å
T2 construct: full length, N-terminal His6 tag, plasmid pCA24N-ppnN, expressed in E. coli BL21(DE3) ppnN::kan; homotetramer; domains PAG1 1-150, catalytic 151-329, PAG2 330-454
T2 sequence (P0ADR8 1-454 E264A): T1 sequence (P0ADR8 1-454) with E264A

Nc1nc2c([C@@H]3O[C@H](COP(=O)(O)O)[C@@H](O)[C@H]3O)c[nH]c2c(=O)[nH]1 [9-deaza-GMP]
X-ray crystal structure 3.4 Å ([1]; second dimer interface (two sites per tetramer), not the active site, with ppGpp): an elongated electron density was found into which 9dG could be modelled

Nc1nc2[nH]cnc2c(=O)[nH]1 [guanine]
X-ray crystal structure ([2]; active sites of the three open monomers, carried over, GMP not added, modelled into density): guanine into the smaller densities

Nc1nc2c(ncn2[C@@H]2O[C@H](COP(=O)(O)OP(=O)(O)O)[C@@H](OP(=O)(O)OP(=O)(O)O)[C@H]2O)c(=O)[nH]1 [ppGpp]
X-ray crystal structure 3.4 Å ([1]; allosteric alarmone site at dimer interface, four of four sites, with 9-deaza-GMP): All four canonical alarmone binding sites are occupied by ppGpp

Nc1nc2c(ncn2[C@@H]2O[C@H](COP(=O)(O)OP(=O)(O)OP(=O)(O)O)[C@@H](OP(=O)(O)OP(=O)(O)O)[C@H]2O)c(=O)[nH]1 [pppGpp]
X-ray crystal structure ([2]; allosteric alarmone site at dimer interface, three of four sites): pppGpp was bound to three out of four PpnN molecules | X-ray crystal structure 3.5 Å ([3]; allosteric alarmone site at dimer interface, four of four sites, co-crystallised with GMP): all four alarmone sites are occupied by pppGpp

O=P(O)(O)OC[C@H]1OC(O)[C@H](O)[C@@H]1O (stereo partly shown) [ribose 5-phosphate]
X-ray crystal structure ([2]; active site of the partially open monomer, carried over, GMP not added, modelled into density): ribose-5-phosphate (R5P) into the bilobed density | X-ray crystal structure 3.5 Å ([3]; active site, four of four, from GMP added to the crystallisation): likely corresponding to the product, R5P
